Experimental findings from ChEMBL document CHEMBL1128146, “Tricarbonyl 6 arene chromium (0) based antitumor agents” (Bioorg Med Chem Lett, 1995) are described below.

What is called IC50 is the concentration at which inhibition is half-maximal.

The structures appear in SMILES notation.

In the test the test system is HCT-116. As to the kind of experiment: Inhibitory activity against HCT116 tumor cell line. The class given is functional, cell-based. The settings on record: Homo sapiens.
Turning to `CS(=O)(=O)OCCN(CCOS(C)(=O)=O)c1ccccc1`, the IC50 is 25 nM.

`CS(=O)(=O)OCCCN(CCCOS(C)(=O)=O)c1ccccc1` came in with an IC50 of 99 nM.

Regarding `CC(C)(C)[Si](C)(C)OCCN(CCO[Si](C)(C)C(C)(C)C)c1ccccc1`, half-maximal inhibition (IC50) required 1900 nM.
